Patent US20240299591A1, “Antimicrobial Peptides and Their Use” (priority 2021, published 2024)
Entries after “also recorded” stand apart in the source; their conditions may differ. Where a SMILES comes first, the peptide text is derived from it. [ ]: non-standard residue; d: D form. The star is where a group is joined. X1 = CN1/C(=C/C=C(/C=C/C2=[N+](C)c3ccccc3C2(C)C)c2ccc(C(=O)*)cn2)C(C)(C)c2ccccc21

How the values were obtained:
Aspergillus fumigatus [1] = type: cell-based; conditions: Conidia (10% Vogel's), 37° C., 24 h
Description: The assays were performed using Nunc 262162 U96 polystyrene round bottomed clear plates (www.nuncbrand.com).
(§1) When testing the peptides against A. fumigatus, peptides at different concentrations were mixed with A. fumigatus conidia to reach a final volume of 100 μL per well. The final conidial concentration was 5×10^5 cells/mL in 10% Vogel's medium. After 24 h of incubation at 37° C. in 96 well plates, fungal growth with the different peptide concentrations was determined by measurement of the optical density at 610 nm in a TriStar LB 941 Multimode Microplate Reader. The IC50 values were determined using four parameter logistic regression formula provided by Sigma Plot 10.0. Values are represented as means±SEM from two independent experiments (n=3).
(§2) The IC50 of the fluorescently labelled peptides cannot be accurately determined using the optical density method described in the last section. This is because the fluorophore structures absorbed light at 610 nm which was the wavelength used for the optical density measurements. In order to overcome this, the BacTiter-Glo™ Microbial Cell Viability Assay kit purchased from Promega was used. The BacTiter-Glo™ Reagent relies on the properties of a proprietary thermostable luciferase (Ultra-Glo™ Recombinant Luciferase) and a proprietary formulation for extracting ATP from fungal cells which will generates a ‘glow-type’ luminescent signal. This is produced by the luciferase reaction shown in Scheme 1, which has a signal half-life of over 30 min depending on the experimental conditions. The luminescent signal is proportional to the amount of ATP present, which is directly proportional to the number of living cells in culture.
(§3) The IC50 assays for all fluorescently labelled peptides were performed using Greiner CELLSTAR white polystyrene wells flat bottomed 96 well plates. The incubation conditions remained the same for the optical density measurement described in the previous section. Once the incubation procedure was finished, the plate was equilibrated to room temperature. A mixture of BacTiter-Glo™ buffer and substrate was then added to the plate (100 μL per well). The plate was shaken for 5 min and read using the Tristar […] luminometer. Data analysis was performed using Sigma Plot 10.0. All values shown are presented as means±SEM from two independent experiments (n=3).

[2] = tested on: Human Red Blood Cells (HRBCs); assay: Haemolytic activity in human red blood cells; conditions: 10 μM, 37° C., 1 h
Description: Molecules, DMSO (as positive control) and PBS (as negative control) were incubated with human RBCs at 37° C. and their viability was assessed after 1 h.
Erythrocytes were isolated from freshly drawn, anticoagulated human blood and diluted in PBS (1:5). An amount of 50 μl of erythrocyte suspension was added to 50 μl of compounds at 10 µM. DMSO was used as positive control and PBS as negative control. The plate was incubated at 37° C. for 1 h, each well was diluted with 150 μl of PBS and the plate was centrifuged at 1,200 g for 15 min. A total of 100 μl of the supernatant from each well was transferred to a fresh plate, and the absorbance at 350 nm was measured in a microplate reader. Data is represented as % of cell viability as means from three independent experiments with n=3.

[3] = tested on: A. fumigatus and S. aureus; assay: Live cell imaging in pig corneal infection model co-infected by A. fumigatus and S. aureus; conditions: 2.5 μM, 15 min incubation at 37° C., co-infected 48 h
Text: The labelled compound can be used to distinguish fungus from S. aureus when using confocal microscopy based on assessing the morphology of the areas of fluorescence. The fungal hyphea can be observed and identified based on its characteristic filamentous shape, and its much larger size compared to the bacteria which appears to be much smaller and having a dotted shape.

A. fumigatus [4] = assay: Live cell imaging in pig corneal infection model; parameters: species or system Aspergillus fumigatus; dose or concentration left out as unconfirmed; conditions: 15 min incubation at 37° C.
Description: MFIGAF001a in a pig corneal infection model was investigated (FIG. 12).
Porcine corneal was infected with A. fumigatus using the same method described above (Biological Example 8). After confirming the success of infection, 1 drop of MFIGAF001 solution in water (2.5 μM) was added topically to the corneal surface and incubated for 15 min at 37° C. before confocal microscopy.

Fusarium oxysporum = type: cell-based; conditions: Conidia (10% Vogel's), 35° C., 24 h
Description: Dose dependent inhibition of fungal growth by all non-labelled peptides (indicated by IC50 values) was determined via this methodology. The assays were performed using Nunc 262162 U96 polystyrene round bottomed clear plates (www.nuncbrand.com).
as §1
When testing the peptides against N. crassa and F. oxysporum, experiments were carried as described above apart from the incubation temperature was changed to 25° C. for N. crassa and 35° C. for F. oxysporum.
as §2, §3

A. fumigatus [5] = assay: Live cell imaging of A. fumigatus in co-cultures with A549; type: cell-based, Aspergillus fumigatus; conditions: 2.5 µM, 10 min after addition, 37° C. in RPMI
S. aureus = assay: Live cell imaging with S. aureus; type: cell-based, Staphylococcus aureus; conditions: 2.5 µM, 20 min incubation at 37° C. in RPMI
Text: MFIGAF001a labels gram positive bacteria Staphylococcus aureus. (FIG. 14).

[6] = tested on: C. albicans, F. oxysporum, A. fumigatus, and C. neoformans; assay: Live cell imaging, fluorescent labelling of pathogenic fungi; type: cell-based; parameters: dose or concentration left out as unconfirmed; conditions: 15 min incubation at 37° C. in RPMI
Description: The N. crassa mat A WT used for confocal live-cell imaging was grown on 100% Vogel's agar medium at 25° C. for 3-5 days before the spores were harvested. The A. fumigatus CEA10 strain used for confocal live-cell imaging was grown on 100% Vogel's medium at 37° C. for 4-5 days before the spores were harvested. Before the confocal experiments were performed, N. crassa spores were incubated in eight-well slide culture chambers for 3 h at 25° C. in liquid 10% Vogel's medium and A. fumigatus spores were incubated for 16 h at 25° C. in liquid 10% Vogel's medium in order to allow germination to fully take place for imaging.
Live-cell imaging of germinated fungi spores was performed using a Leica TCS SP8 confocal laser scanning microscope equipped with photo multiplier tubes (PMT), hybrid GaAsP (HyD) detectors and a 63× water immersion objective. A Leica turntable white light laser (WLL, 450-750 nm), argon laser (458 nm, 476 nm, 488 nm and 496 nm) and UV laser (405 nm) were used for fluorescence excitation.
The major pathogenic fungi include C. albicans, F. oxysporum, A. fumigatus, and C. neoformans.

[7] = tested on: reconstructed cornea-like epithelium (RhCE, EpiOcular™); assay: Viability of reconstructed cornea-like epithelium (eye irritation model); type: cell-based; conditions: RhCE, EpiOcular™
Description: (§4) FIG. 4a is a graph of the viability reconstructed cornea-like epithelium (RhCE, EpiOcular™) after incubation with MFIGA001. NC=Negative Control; PC=Positive Control. FIG. 4b is a graph of the viability reconstructed cornea-like epithelium (RhCE, EpiOcular™) after incubation with 10 µM of MFIGA001a and MFIGAF001b. NC=Negative Control; PC=Positive Control; A2=MFIGAF001a; and B1=MFIGAF001b.
(§5) MFIGAF001 was also assessed independently by a CRO (Evotec) in an OECD compliant reconstructed cornea-like epithelial cell model (RhCE, EpiOcular™).

[8] = as above; type: cell-based; conditions: human, reconstructed cornea-like epithelium (RhCE, EpiOcular™); 10 μM; read-out: Mean of Viabilities (%)
Description: as §4, §5

P. aeruginosa = assay: Live cell imaging with P. aeruginosa; type: cell-based; conditions: 2.5 μM, 37° C. in RPMI, 1 h
rabbit eye = assay: Tolerability study on rabbit eyes in vivo; conditions: 10 µM, 50 µL into the right eye, three rabbits, observed 7 days
Description: Three rabbits (rabbits 1, 2 and 3) were tested. All rabbits appeared unaffected immediately post-treatment and through the next 7 days with no signs of irritation and no change in general condition. MFIGAF001a was used at 10 µM and 50 µL and was admitted into the right eye of the rabbits.

Fusarium species = conditions: clinical isolates (Arikan et al., 2001); cited from earlier work
Aspergillus species = conditions: cited from earlier work
Aspergillus fumigatus [9] = type: cell-based; conditions: Conidia (RPMI), 37° C., 24 h

CN1/C(=C/C=C(/C=C/C2=[N+](C)c3ccccc3C2(C)C)c2ccc(C(=O)NCCCC[C@@H]3NC(=O)[C@H](Cc4c[nH]c5ccccc45)NC(=O)[C@H](Cc4ccccc4)NC(=O)[C@H](Cc4c[nH]c5ccccc45)NC(=O)[C@@H](Cc4ccccc4)NC(=O)[C@H](CCCCN)NC(=O)[C@H](CCCCN)NC(=O)[C@H](CCCNC(=N)N)NC(=O)CNC3=O)cn2)C(C)(C)c2ccccc21 [MFIGAF001a, Cyclo(Arg-Lys-Lys-phe-Trp-Phe-Trp-Lys(Cy5)-Gly)] (cyclo(FWK(X1)GRKK[dF]W))
IC50 Aspergillus fumigatus (Aspergillus fumigatus [1]): 1.3 µg/mL
Haemolytic activity against HRBCs [2]: no haemolytic activity
Differentiation of fungus from S. aureus by morphology of fluorescence [3]: can be used to differentiate fungal keratitis and gram positive bacterial keratitis
Selective labelling of A. fumigatus over porcine corneal tissue (A. fumigatus [4]): selectively labelled A. fumigatus
IC50 Fusarium oxysporum (Fusarium oxysporum): 1.5 µg/mL
Selective labelling of A. fumigatus over A549 (A. fumigatus [5]): selectively labels A. fumigatus over A549 cell
Labelling of gram positive bacteria Staphylococcus aureus (S. aureus): labels
Fluorescent labelling of pathogenic fungi [6]: label all major pathogenic fungi that cause fungal keratitis; also recorded: rapid and highly fluorogenic labelling
Toxicity, reconstructed cornea-like epithelium (FIG. 4) [7]: no obvious toxicity
viability at 10 µM [8]: 98%
Selectivity over gram negative bacteria Pseudomonas (labelling) (P. aeruginosa): great selectivity
Tolerability / eye irritation in rabbit eye (rabbit eye): no eye irritation; also recorded: well tolerated

CC[C@H](C)C[C@H](C)CCCCCCCCC(=O)N[C@H]1C[C@@H](O)[C@@H](NCCN)NC(=O)[C@@H]2[C@@H](O)CCN2C(=O)[C@H]([C@H](O)CCN)NC(=O)[C@H]([C@H](O)[C@@H](O)c2ccc(O)cc2)NC(=O)[C@@H]2C[C@@H](O)CN2C(=O)[C@H]([C@@H](C)O)NC1=O [Caspofungin]
Activity against Fusarium species (MIC testing) (Fusarium species): not particularly active
MICs against Aspergillus clinical isolates (Aspergillus species): moderate MICs

C[C@@H]1C/C=C/C=C/C=C/C=C/[C@H](O[C@@H]2O[C@H](C)[C@@H](O)[C@H](N)[C@@H]2O)C[C@@H]2O[C@](O)(C[C@@H](O)C[C@H]3O[C@@H]3/C=C/C(=O)O1)C[C@H](O)[C@H]2C(=O)O [Natamycin]
IC99 Aspergillus fumigatus (Aspergillus fumigatus [9]): 39 mg/L
